Drawing on ChEMBL document CHEMBL1150834, “Novel halogenated metabolites from the Malaysian Laurencia pannosa” (2001), this text covers MIC for 3 molecules.

Assay type in all cases: functional
For experiment [1], the system named is Chromobacterium violaceum. In words: Antibacterial activity against Chromobacterium violaceum after 24 hrs by paper disk method.
The subject of the next experiment is Proteus mirabilis. In words: Antibacterial activity against Proteus mirabilis after 24 hrs by paper disk method.
The next experiment has as its system Vibrio cholerae. In words: Antibacterial activity against Vibrio cholerae after 24 hrs by paper disk method.

Molecules are shown by their SMILES.

Regarding `C#C/C=C\C[C@@H]1O[C@H]2C[C@@H]1O[C@H](CC)[C@@H](Br)C[C@@H]2Cl`, the MIC in experiment [1] worked out at 100 µg. `C[C@@H]1[C@]2(CC[C@@](C)(Cl)[C@H](Br)C2)[C@]2(C)CC[C@@]1(C)O2` [PANNOSANE] had an MIC in experiment [1] of 60 µg.

As for `C=C1[C@@H](C)CC[C@@](C)(O)[C@@]12CC[C@@](C)(Cl)[C@H](Br)C2` [PANNOSANOL], the figures for the MIC (in the experiment on Proteus mirabilis; in experiment [1]; against Vibrio cholerae) were 60 µg, 100 µg and 100 µg, respectively.
